Values joined by “and” are separate entries in the source; they are usually repeats but may differ in a detail not shown here. Identical values can stand only once. Blank lines part the entries; values can stand above or below the compound they belong to.
Columns and labels:
[1] = tested on: isolated adult rat cardiomyocytes; test: Contractility (sarcomere shortening) of paced isolated cardiomyocytes; format: cell-based; settings: paced at 2 Hz; for effect on isoprenaline-enhanced contractility: 1 μM with 15 nM isoprenaline
Experimental: To evaluate Opto-prop-2 in a relevant biological system with endogenous levels of the native receptor proteins, it was tested using isolated adult rat cardiomyocytes. Cardiomyocytes were paced at 2Hz, inducing contractions that were quantified by measuring the sarcomere length over time (Figure 6A). […] This enhanced contractility was attenuated by co-incubating with cis-Opto-prop-2 (magenta line) but not by trans-Opto-prop-2 (teal line) at 1 μM concentrations.
Intact adult cardiomyocytes were isolated from 3 adult wild-type Wistar rats weighing 200–250 g as described previously. ([Nollet et al., 2020]; [van Deel et al., 2017]) Briefly, rats were sedated and anesthesized by isoflurane inhalation. The heart was removed and perfused in a Langendorff setup with Liberase TM (Roche) digestive enzymes and the left ventricle was consequently cut into small pieces and resuspended in stopping buffer. This mixture was passed over a 300 μm nylon mesh filter, isolated cells in the filtrate were resuspended in buffer containing 1mM CaCl2. Cells were suspended in plating medium composed of Medium 199 (Lonza), 1% penicillin/streptomycin and 5% bovine serum and plated on a laminin coated dish (10 μg/mL, Sigma-Aldrich). The cells were incubated for 1 h at 37 °C in humidified air with 5% CO2 to let them attach to the coated dish. Afterwards, non-attached cells were removed by washing cells with pre-heated Tyrode solution (137 mM NaCl, 5.4 mM KCl, 3 mM sodium pyruvate, 5 mM HEPES, 0.57 mM MgCl2, 0.33 mM NaH2PO4, 1.0 mM CaCl2 and 5.6 mM glucose, pH 7.4 at 37 °C). Contractility measurements were performed at 37 °C using the Multi-Cell system (CytoCypher, the Netherlands). Cells were treated to vehicle (DMSO), 15 nM isoproterenol alone or in combination with 1 μM of propranolol or Opto-prop-2 (either with or without prior illumination). […]
Changes in sarcomere length were recorded with a high-speed camera and Ionoptix software (Ionoptix, Westwood MA, USA). The contractility profiles were analyzed with the automated, batch analysis software ‘Transient Analysis Tools’ (CytoCypher, Amsterdam, NL). […]

β2-AR [2] = target: T1, β2-AR (Homo sapiens, UniProt P07550); test: Conformational β2-AR BRET sensor in HEK293A cells
Target sequence in this assay (P07550 1-369): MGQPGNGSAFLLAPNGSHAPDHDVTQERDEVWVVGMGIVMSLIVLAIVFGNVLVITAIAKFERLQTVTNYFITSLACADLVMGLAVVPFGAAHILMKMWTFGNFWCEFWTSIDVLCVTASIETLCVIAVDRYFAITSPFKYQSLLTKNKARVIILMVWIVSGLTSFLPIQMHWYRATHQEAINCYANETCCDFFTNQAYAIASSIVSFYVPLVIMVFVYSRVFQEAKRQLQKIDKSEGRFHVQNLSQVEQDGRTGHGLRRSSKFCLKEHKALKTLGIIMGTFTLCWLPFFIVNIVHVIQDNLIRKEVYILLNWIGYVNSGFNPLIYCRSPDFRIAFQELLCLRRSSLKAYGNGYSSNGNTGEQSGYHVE
Experimental: The next day, cells were washed with HBSS and incubated with a 1/1000 stock solution of furimazine. […] Wells pre-incubated with 0.1% DMSO/HBSS control were treated with vehicle control.
Raw BRET ratios were defined as acceptor emission/donor emission.
Antagonist pKB values were calculated using the agonist potency and concentration together with the antagonist IC50 values, using the Cheng-Prusoff equation.

β2-AR [3] = target: T1, β2-AR; test: [3H]DHA radioligand displacement on membranes of HEK293T cells expressing β2-AR; settings: for fold Ki trans vs PSScis at β2-AR: fold difference between Ki of trans and Ki at PSScis; for selectivity in binding β2-AR over β1-AR: cis-isomer (PSScis); for Active state at β2-AR: isomer state with higher affinity; for Ki: β2-AR
Target sequence in this assay (P07550 whole entry): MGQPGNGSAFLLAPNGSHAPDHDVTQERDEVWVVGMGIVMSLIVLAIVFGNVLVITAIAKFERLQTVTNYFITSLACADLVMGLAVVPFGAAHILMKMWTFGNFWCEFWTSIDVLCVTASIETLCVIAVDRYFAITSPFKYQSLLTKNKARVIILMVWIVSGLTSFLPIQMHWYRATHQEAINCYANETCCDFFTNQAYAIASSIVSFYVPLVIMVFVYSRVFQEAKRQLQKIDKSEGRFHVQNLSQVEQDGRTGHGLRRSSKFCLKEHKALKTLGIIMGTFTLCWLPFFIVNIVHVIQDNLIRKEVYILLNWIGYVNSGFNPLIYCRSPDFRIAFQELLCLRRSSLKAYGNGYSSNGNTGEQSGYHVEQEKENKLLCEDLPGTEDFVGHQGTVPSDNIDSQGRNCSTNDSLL
Experimental: (§5) Membranes of HEK293T-cells transiently expressing the receptor of interest were co-incubated with the tritiated β1/β2-AR antagonist dihydroalprenolol ([^3H]DHA, Figure S2 depicts saturation binding experiments), together with increasing concentrations of the competing unlabeled ligand.
(§6) Two million HEK293T cells were seeded in a 10cm^2 dish and were transiently transfected the next day with 1 μg human β1-AR or the β2-AR plasmid DNA, 4 μg empty pcDEF3 plasmid DNA and 30 μg linear 25 kDa polyethyleneimine (PEI; Polysciences Warrington, USA) in a 150 mM NaCl solution. […] Two days after transfection, cells were resuspended and washed (3 times) with PBS and pelleted by centrifugation steps at 1500 g. After the final centrifugation step, cell pellets were reconstituted into ice-cold Tris-HCl buffer (15 mM, supplemented with 0.3 mM EDTA and 2 mM MgCl2 at pH7.4) and dounce-homogenised by plunging the pestle 10 times with 1,500 rpm (Tamson, the Netherlands). The homogenates were frozen and thawed twice using liquid nitrogen, after which the membranes were isolated using an ultra-centrifuge L70 at 40,000 g (Beckman Coulter, USA). Cell pellets were then washed and reconstituted in ice-cold 20 mM Tris-HCl buffer supplemented with 250 mM Sucrose at pH 7.4. Finally, the membrane samples where homogenized using a 23-gauge needle, snap-frozen with liquid nitrogen and stored until further experimentation at −80 °C. The protein content was determined using a BCA protein assay kit (Thermo Scientific, USA).
(§7) On the day of the experiment 0.25–0.5 μg membranes expressing either the β1-AR or the β2-AR, were co-incubated with [^3H]DHA (Perkin Elmer, USA) and increasing concentrations unlabeled ligand in HBSS buffer (Thermo Scientific, with Ca^2+ and Mg^2+) supplemented with 0.1% BSA for 1 h at 25 °C under gentile agitation. Either a 4 nM or 1 nM concentration of [^3H]DHA was used in combination with membranes expressing either the β1-AR or β2-AR, respectively. Binding reactions were terminated by filtration over a PEI coated GF/C filter (Perkin Elmer) using ice-cold 50 mM Tris-HCl buffer with 500 mM NaCl at pH 7.4. GF/C plates were dried at 52 °C and filter bound [^3H]DHA was quantified by adding 25 μL/well Microscint-O scintillation liquid and counting luminescence using the Wallac Microbeta counter, as described before.
(§8) IC50 values were determined by fitting the concentration-dependent displacement of [^3H]DHA by unlabeled ligands, with a three-parameter sigmoidal model in GraphPad Prism. […] Competition binding graphs represent the pooled data of ≥3 experiments, normalized to the fitted top and bottom of the reference sigmoidal displacement curve of unlabeled DHA.

[4] = Cis-to-trans thermal relaxation, Arrhenius extrapolation; format: physicochemical; settings: PSScis sample 25 μM in HBSS buffer with 1% DMSO; Arrhenius extrapolation to 20 °C
Experimental: (§1) Solubility in buffer was explored for all compounds using nephelometry ([Bevan and Lloyd, 2000]) and these studies indicate good solubility of all azobenzene photoswiches up to at least 100 μM (Figure S1). […] For all compounds, 360 nm induces a large change in absorbance spectrum compared with the non-illuminated (dark) compounds (Table 1, Figure 2A, and S1), indicating photoisomerization to the cis-isomer. The absorbance peak (λmax) of Opto-prop-1-3 ranged between 319 and 347 nm for the trans-isomers and between 423 and 429 for the cis-isomers (Table 1), as is typical for azobenzene compounds ([Hauwert et al., 2018]). […] The photochemical conversions were determined by continuous illumination of the Opto-prop compounds with near UV-light (360 ± 20 nm) as 10-mM solutions in DMSO. Based on LCMS analysis, it was observed that all compounds obtained a high level of conversion to the cis-isomer with a photostationary state (PSS) of >88 area % cis-isomer (i.e. PSScis; Table 1). Subsequent back-switching to PSStrans with 434 nm maintained 22–29 area % cis-isomer (Table 1). The thermal relaxation of the PSScis state of the photoswitchable ligands was monitored over time by measuring absorbance at 254 nm. Only minor thermal relaxation to the trans-isomer could be detected at 20°C (not shown). An estimate of the relaxation rate at 20 °C was determined using a method by Priimagi et al. ([Ahmed et al., 2017]), which was performed in Hanks’ balanced salt solution (HBSS) using increased temperatures to enhance the speed of thermal relaxation. The Opto-prop ligands are all very stable as cis-isomer after illumination, with thermal relaxation half-lives of >10 days at 20 °C (See Table 1 and Figure S1).
Cis-to-trans thermal relaxations were performed in the dark at 25 μM of the PSS360 state of the Opto-prop-1, -2 or -3 in HBSS buffer with 1% DMSO at various temperatures (60°C, 70°C and 80°C). Absorbance was repeatedly measured at 320, 320 and 347 nm for Opto-prop-1, -2 or -3, respectively, with 60 s intervals.

β1-AR [5] = target: T2, β1-AR (Homo sapiens, UniProt P08588); test: [3H]DHA radioligand displacement on membranes of HEK293T cells expressing β1-AR; settings: for fold Ki trans vs PSScis at β1-AR: fold difference between Ki of trans and Ki at PSScis; for Active state at β1-AR: isomer state with higher affinity
T2 sequence (P08588 whole entry): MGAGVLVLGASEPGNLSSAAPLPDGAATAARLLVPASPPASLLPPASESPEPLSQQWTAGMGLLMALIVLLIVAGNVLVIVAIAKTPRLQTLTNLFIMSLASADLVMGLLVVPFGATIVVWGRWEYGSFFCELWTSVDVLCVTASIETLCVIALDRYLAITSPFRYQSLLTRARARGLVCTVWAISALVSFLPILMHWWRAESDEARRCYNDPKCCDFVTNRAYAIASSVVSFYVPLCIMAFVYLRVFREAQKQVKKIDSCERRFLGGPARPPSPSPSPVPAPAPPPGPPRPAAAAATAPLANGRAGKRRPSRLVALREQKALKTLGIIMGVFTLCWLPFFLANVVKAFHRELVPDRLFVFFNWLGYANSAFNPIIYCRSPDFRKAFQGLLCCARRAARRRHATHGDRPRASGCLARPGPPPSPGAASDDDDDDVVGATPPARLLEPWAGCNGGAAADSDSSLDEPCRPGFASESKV
Experimental: as §5, §6, §7, §8

[6] = UV-Vis absorbance spectra; format: physicochemical; settings: 25 μM in HBSS buffer with 1% DMSO; for λmax cis: cis-isomer; for λmax trans: trans-isomer
Experimental: as §1
UV-Vis spectra were obtained using a Thermo-scientific Evolution 201 PC spectrophotometer. Illumination was executed using a Sutter instruments Lambda LS with a 300 Watt full-spectrum lamp connected to a Sutter instruments Lambda 10-3 optical filter changer equipped with 360 ± 20 nm, 400 ± 5 nm, 434 ± 9 nm and 460 ± 5 nm filters. The light intensity is 0.93 mW/mm^2 using the 360 ± 20 nm filter, 0.22 mW/mm^2 using the 400 ± 5 nm filter, 0.79 mW/mm^2 for the 434 ± 9 nm filter and 0.26 mW/mm^2 for the 460 ± 5 nm filter as measured using a Thorlabs PM16-401 power meter.
For the determination of the UV-Vis spectra shown in Figure 2A, compounds (25 μM in 1% DMSO/HBSS buffer) were illuminated in Hellma Suprasil quartz 114-QS cuvettes with either a 360, 400, 434 or 460 nm filter for the indicated time. For the determination of PSScis and PSStrans states by UV spectroscopy (Figures S1D–S1F), a solution of the compound in 1% DMSO/HBSS buffer (25 μM) in a vial was illuminated to PSS cis with 360 nm (typically 4–5 min) and subsequently to PSS trans with 434 nm (typically 2–5 min). UV spectra were recorded.

[7] = PSScis and PSStrans by LC analysis; format: physicochemical; settings: for PSScis (% cis-isomer): 10 mM in DMSO after illumination with 360 nm; for PSScis (% cis-isomer) / PSStrans (% cis-isomer): LCMS area at isosbestic wavelength; for PSStrans (% cis-isomer): 10 mM in DMSO, 360 nm then 434 nm
Experimental: as §1
For the determination of PSScis and PSStrans values by LC analysis (Table 1), a solution of the compound in DMSO (10 mM) was illuminated to PSScis with 360 nm and subsequently to PSStrans with 434 nm. PSS aliquots were withdrawn, diluted with MeCN and subjected to LCMS analysis with the corresponding isosbestic points wavelength: 278, 263 and 308 nm for Opto-prop-1-3, respectively.

β1-AR [8] = target: T2, β1-AR; test: Saturation binding of [3H]dihydroalprenolol, β1-AR membranes; parameters: host or cells: HEK293T, transient; membranes; settings: HEK293T membranes
Experimental: (§2) Figure S2. Saturation binding of [3H]dihydroalprenolol t o the β1 and β2 adrenergic rec eptors, related to Figure 3. Increasing concentrations [3H]dihydroalprenolol were incubated with membranes of HEK293T cells transiently expressing either the β1-AR (A) or β2-AR (B). Both the radioligand concentration and bound radioligand were quantified by scintillation counting. Data represent the po o led m ean ± SD of 4 experiments. Binding affinities (pKd) of [3H]dihydroalprenolol were determined by fitting the data in each individual experiment. […]
(§3) and a Bmax value of 33 ± 19 pmol/mg at membranes expressing the β2-AR.
(§4) (1 picture or pasted object on this page, not shown here)

β2-AR [9] = target: T1, β2-AR; test: Saturation binding of [3H]dihydroalprenolol, β2-AR membranes; parameters: host or cells: HEK293T, transient; membranes; settings: HEK293T membranes
Experimental: as §2, §3, §4
Target sequence in this assay (P07550 whole entry): as the sequence (P07550 whole entry) above

[10] = pKi PSScis, β1-AR, illuminated to PSScis (360 nm) before experiment
[11] = pKi trans, β1-AR, without prior illumination (trans-isomer)
[12] = pKi PSScis, illuminated to PSScis (360 nm) before experiment
[13] = pKi trans, without prior illumination (trans-isomer)

SMILES: CC(C)NCC(O)c1ccc(O)c(O)c1 (stereo not drawn) [isoprenaline, reference compound]
effect on sarcomere shortening ([1]; 15 nM): further increased the shortening of the sarcomeres

IC50 (β2-AR [2]): 1000 nM
fold Ki trans vs PSScis at β2-AR (β2-AR [3]): 587 fold
SMILES: CC(C)NCC(O)COc1cccc(/N=N/c2ccccc2)c1 (stereo not drawn) [trans-Opto-prop-2]
effect on isoprenaline-enhanced contractility [1]: not

increase in β2-AR affinity upon 360 nm illumination (β2-AR [3]; cis vs trans): ~3 log-units
selectivity in binding β2-AR over β1-AR (β2-AR [3]): 78 fold
SMILES: CC(C)NCC(O)COc1cccc(/N=N\c2ccccc2)c1 (stereo not drawn) [cis-Opto-prop-2]
effect on isoprenaline-enhanced contractility [1]: attenuated

t1/2 20°C (thermal relaxation of cis-isomer) [4]: >240 h
Ki (β1-AR [5]; Ki at β1-AR, trans-isomer): < 13 nM
selectivity β1-AR over β2-AR (β1-AR [5]; both isomers): ≥ 10 fold
fold Ki trans vs PSScis at β1-AR (β1-AR [5]): 18 fold
Active state at β1-AR (β1-AR [5]): trans
Ki (β1-AR [5]; [10]): 200 nM
Ki (β1-AR [5]; [11]): 12.6 nM
λmax cis [6]: 429 nm
λmax trans [6]: 347 nm
PSScis (% cis-isomer) [7]: 93.8 ± 0.6 % cis-isomer
PSStrans (% cis-isomer) [7]: 21.5 ± 0.1 % cis-isomer
trans-content at PSStrans ([7]; 434 nm): 78.5%
fold Ki trans vs PSScis at β2-AR (β2-AR [3]): 2.6 fold
Active state at β2-AR (β2-AR [3]): cis
Ki (β2-AR [3]; [12]): 3980 nM
Ki (β2-AR [3]; [13]): 10000 nM
SMILES: CC(C)NCC(O)COc1ccc(/N=N/c2ccccc2)cc1 (stereo not drawn) [Opto-prop-3]

selectivity in binding affinity β1-AR over β2-AR (β1-AR [5]; trans-isomer): 813 fold
SMILES: CC(C)NCC(O)COc1ccc(/N=N/c2ccccc2)cc1 (stereo not drawn) [trans-Opto-prop-3]

selectivity in binding β2-AR over β1-AR (β2-AR [3]): 21 fold
SMILES: CC(C)NCC(O)COc1ccccc1/N=N\c1ccccc1 (stereo not drawn) [cis-Opto-prop-1]

t1/2 20°C (thermal relaxation of cis-isomer) [4]: >240 h
Ki (β1-AR [5]; Ki at β1-AR, trans-isomer): < 13 nM
fold Ki trans vs PSScis at β1-AR (β1-AR [5]): 9 fold and 9.4 fold
Active state at β1-AR (β1-AR [5]): trans
Ki (β1-AR [5]; [10]): 79.4 nM
Ki (β1-AR [5]; [11]): 7.94 nM
λmax cis [6]: 423 nm
λmax trans [6]: 321 nm
PSScis (% cis-isomer) [7]: 88.9 ± 1.0 % cis-isomer
PSStrans (% cis-isomer) [7]: 28.8 ± 0.3 % cis-isomer
selectivity β2-AR over β1-AR (β2-AR [3]; both isomers): ≥ 10 fold
fold Ki trans vs PSScis at β2-AR (β2-AR [3]): 4 fold and 4.3 fold
Active state at β2-AR (β2-AR [3]): trans
Ki (β2-AR [3]; [12]): 3.16 nM
Ki (β2-AR [3]; [13]): 0.794 nM
SMILES: CC(C)NCC(O)COc1ccccc1/N=N/c1ccccc1 (stereo not drawn) [Opto-prop-1]

Bmax, β1-AR membranes (β1-AR [8]): 56 ± 16 pmol/mg
Bmax, β2-AR membranes (β2-AR [9]): 33 ± 19 pmol/mg
SMILES: CCCc1ccccc1OCC(O)CNC(C)C (stereo not drawn) [[3H]dihydroalprenolol, dihydroalprenolol]

Reference: article PMC9436767, “Optical control of the β2-adrenergic receptor with opto-prop-2: A cis-active azobenzene analog of propranolol” (iScience, 2022)
